Measured values: the supplement of paper PMC10949913

Tests used:
Assay in all cases: area under concentration-response curve (viability) (AUC (a.u.)); higher = less active
Conditions in all cases: 48 h
CU-ACC1 = tested on: CU-ACC1
Summary of the method: (§1)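 Library compounds were tested at 11 concentrations against three adrenocortical carcinoma cell lines in 1,536-well plates. CellTiter-Glo luminescence was read after 48 h and normalised per plate to vehicle and empty-well controls. Only inhibitory or non-responding curve classes from fitted concentration-response curves contributed AC50 and area under the curve.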

CU-ACC2 = tested on: CU-ACC2
Summary of the method: as §1

NCI-H295R = tested on: NCI-H295R
Summary of the method: as §1

| Compound | area under concentration-response curve (CU-ACC1) | area under concentration-response curve (CU-ACC2) | area under concentration-response curve (NCI-H295R) |
| --- | --- | --- | --- |
| O=C(O)CC(C(=O)O)N1C(=O)/C(=C2/C(=O)Nc3ccc(Br)cc32)SC1=S (stereo not drawn) | 569 | 593 | 567 |
| COC/1=C/C=C2\C(=C/C1=O)[C@H](CCC3=CC(=C(OC)C(=C23)OC)OC)NC(C)=O | 536 | 548 | 480 |
| Cc1noc2c1-c1ccccc1C(c1ccc(Cl)cc1)=N[C@H]2CC(N)=O | 495 | 568 | 466 |
| OC1=CC2=C(C(=C1)O)C(=O)\C(=C(/O2)C3=CC(=C(O)C=C3)O)O | 499 | 607 | 545 |
| Cc1onc(-c2ccc(F)cc2)c1COc1ccc(C(=O)N2CC[S+](=O)([O-])CC2)cn1 | 596 | 646 | 616 |
| N#CN1CCC[C@@H](n2nc(-c3ccc(Oc4ccc(F)cc4F)cc3)c(C(N)=O)c2N)C1 | 487 | 607 | 553 |
| CC(C)(C)C(=O)Oc1ccc2c(c1)nc(NC(=O)c1cccc([N+](=O)[O-])c1)n2CCCO | 506 | 584 | 525 |
| O=[S+]([O-])(c1cccc2cnccc12)N1CCCNCC1 | 502 | 560 | 534 |
| S=P(N1CC1)(N1CC1)N1CC1 | 496 | 590 | 562 |
| COCCCc1sc(-c2ccccc2)nc1C(=O)Nc1ccccc1-c1nc2cc(CN3CCCC3)cnc2s1 | 563 | 564 | 567 |
| CCOC(=O)/C=C/[C@H](C[C@@H]1CCNC1=O)NC(=O)[C@@H](CC(=O)[C@@H](NC(=O)c1cc(C)on1)C(C)C)Cc1ccc(F)cc1 | 530 | 523 | 539 |
| C[C@]1(C(=O)N(CCCC(=O)O)Cc2cccc(Cl)c2)CCN1C(=O)c1csc2ccccc12 | 490 | 584 | 532 |
| NC(=O)c1ccc(-c2nc(-c3ccc4c(c3)OCO4)c(-c3ccccn3)[nH]2)cc1 | 286 | 633 | 509 |
| NCCc1ccc(O)c(O)c1 | 506 | 586 | 478 |
| NC\1=N\C(=O)N(\C=N1)[C@H]2C[C@H](O)[C@@H](CO)O2 | 500 | 588 | 484 |
| CC(NC1=NC=NC2=C1[NH]C=N2)\C3=C\C4=C(C(=CC=C4)Cl)C(=O)N3C5=CC=CC=C5 (stereo not drawn) | 432 | 569 | 580 |
